The source of these data is US11725015B2, “Macrocyclic compound and uses thereof” (President and Fellows of Harvard College, priority 2017, dated 2023).

The subject of the assay is KPL-4 subcutaneous xenograft. Briefly: Antitumor effects in the KPL-4 xenograft model in mice as monotherapy. It is filed as in vivo. The procedure: A human HER-2 positive breast cancer cell line KPL-4, which had been cultured in a DMEM containing 10% FBS, and penicillin-streptomycin, was adjusted to a concentration of 1×10^8 cells/mL with Hanks' Balanced Salt Solution to prepare a cell suspension. The cell suspension was inoculated in a volume of 100 μL into a subcutaneous part of a right flank of nude mice, 8 weeks of ages (CAnN.Cg-Foxnlnu/CrlCrlj, female, Charles River Laboratories Japan Inc.). Eleven days after cell inoculation (Day 1), the shortest diameter and the longest diameter of a tumor in each mouse were measured by using an electronic digital caliper (Digimatic™ caliper, Mitutoyo Corporation), so as to calculate the volume of the tumor in accordance with the following calculation formulae: Tumor volume (mm^3)=Longest diameter (mm)×Shortest diameter (mm)×Shortest diameter (mm)/2 Relative tumor volume (RTV)=Tumor volume (day X)/Tumor volume (the first day) Relative body weight (RBW)=Body weight (day X)/Body weight (the first day)
On the basis of the volumes of tumors obtained on Day 1, the mice were grouped such that averages of the tumor volumes were substantially equal among the groups. The experiment was conducted on groups each consisting of six mice. The test compound was dissolved in DMSO and a solution was stored in the freezer before use. Immediately before the administration, the stock solution was diluted with saline. The test compound in saline was intravenously once-weekly administered at 20 μg/kg, 60 μg/kg, or 180 μg/kg for 2 weeks (on Day 1 and Day 8).

In the case of `C=C1C[C@@H]2CC[C@@]34C[C@H]5O[C@H]6[C@@H](O3)[C@H]3O[C@H](CC[C@@H]3O[C@H]6C5O4)CC(=O)O[C@@H]3[C@@H](C)[C@@H]4O[C@@H]5C[C@]6(C[C@@H]7O[C@]8(C[C@H](C)[C@@H]9O[C@H](CN)[C@H](O)C[C@@H]9O8)C[C@H](C)[C@@H]7O6)O[C@@H]5C[C@@H]4O[C@H]3C[C@H]3O[C@@H](CC[C@@H]1O2)C[C@@H](C)C3=C` [Compound (1)], the antitumor effect entry runs as follows: (60 μg/kg intravenously on Day 1 and Day 8) “tumor regression was observed”; (180 μg/kg intravenously on Day 1 and Day 8) “tumor regression was observed”. Also, under “180 μg/kg, on Day 15”, the “eradication of xenograft tumors” value is “completely eradicated the xenograft tumors in all mice”.
